Structures can show the parent of a compound that is named as a salt.
Key:
opioid receptors = experiment: Stimulation of [35S]GTPγS binding (agonist/antagonist activity); assay type: biochemical, guinea pig

SMILES: C=CCN1CC[C@H](N(c2ccccc2)c2ccc(C(=O)N(CC)CC)cc2)[C@H](C)C1 (racemic) (as salt: hydrochloride)
- melting point: 221 to 225.5 °C

SMILES: C=CCN1CC[C@@H](N(c2ccccc2)c2ccc(C(=O)N(CC)CC)cc2)[C@H](C)C1 (racemic) (as salt: hydrochloride)
- melting point: 177 to 178 °C

SMILES: CN1CCC2(c3cccc(O)c3)Cc3ccccc3CC2(C)C1 (racemic) [Compound 7, (±)-1,2,3,4,4a,5,10,10a-octahydro-4a-(3-hydroxyphenyl)-2,10a-dimethylbenzo-[g]isoquinoline]
- stimulation of [35S]GTPγS binding (agonist activity) (opioid receptors; concentrations as high as 1 μM): neither the N-methyl derivative 7 nor the N-phenethyl derivative 8 stimulated

SMILES: CC1C2CCCC1(c1cccc(O)c1)CCN2CCc1ccccc1 (stereo not drawn) [Compound 5c, 5-(3-Hydroxyphenyl)-9β-methyl-2-(2′-phenylethyl)-2-azabicyclo[3.3.1]nonane]
- agonist/antagonist character (opioid receptors; [35S]GTPγS functional assay): pure antagonists at the μ, δ, and κ opioid receptors
- stimulation of GTP binding (agonist activity) (opioid receptors; up to concentrations of 10 μM): neither 5b nor 5c stimulated GTP binding
